Structures can show the parent of a compound that is named as a salt. Where two headings read alike, the source gives them in different places.

The nature of data set [1]: Predicted concentration-time profile for oral dosing in drinking water. Particulars: 10 mg/kg/day in drinking water, modeled as six oral doses over 12 hrs, plasma. The protocol: The maximum predicted concentration is 0.82 μg/mL and the minimum concentration 0.1 μg/mL. The dose can be adjusted proportionally to achieve the desired concentrations.
Data set [2] can be described thus: Liver microsome stability, human. It counts as in vitro ADME, Human (pooled male and female). Particulars: both sexes; human liver microsomes, 1 μM compound, 0.5 mg/ml microsomal protein, 37° C., 2 mM NADPH. The method, then:
(§1) The stability of the title compound in the presence of liver microsomes was tested at 1 μM compound and 0.5 mg/ml rat or human microsomal protein, at 37° C. with 2 mM NADPH (standard in vitro screening concentrations). […] The “t1/2” values are the maximum time employed for the respective assays.
For orientation: Liver microsomes are a subcellular fraction often used to study metabolism.

The subject of the next data set is 3T3-L1 adipocytes. In words: Restoring glucose uptake in insulin-stimulated 3T3-L1 cells exposed to 4-HNE and H2O2 (FIG. 13). The data set is classed as cell-based, mouse. The conditions noted are these: 10 μM pretreatment 12 hours, then 4HNE and H2O2 4 hours. The method, then: Insulin-stimulated 3T3-L1 adipocytes were pretreated with the drug (S)-2-amino-6-((3-aminopropyl)amino)hexanoic acid dihydrochloride (10 μM) for 12 hours followed by exposure to 4HNE and H2O2 for an additional 4 hours. The amounts of glucose taken up by the 3T3-L1 adipocytes were measured by the MRM methods described above. The results in FIG. 13 show the effect of the drug in restoring glucose uptake in insulin-stimulated 3T3-L1 cells exposed to 4-HNE and H2O2: Control cells, no insulin (C− No Ins); control cells, with insulin (C+ Ins); 4HNE+H2O2-treated cells (4HNE/H2O2) and cells treated with drug+4HNE+H2O2 (“APL”).
Insulin-stimulated 3T3-L1 adipocytes were pretreated with the drug (S)-2-amino-5-((6-aminohexyl)amino)pentanoic acid dihydrochloride (10 μM) for 12 hours followed by exposure to 4HNE and H2O2 for an additional 4 hours. The amounts of glucose taken up by the 3T3-L1 adipocytes were measured by the MRM methods described above. FIG. 13 includes the results: cells treated with (S)-2-amino-5-((6-aminohexyl)amino)pentanoic acid trihydrochloride (MC-180351).
Insulin-stimulated 3T3-L1 adipocytes were pretreated with the drug (S)-2-amino-5-(([…])amino)pentanoic acid dihydrochloride (10 μM) for 12 hours followed by exposure to 4HNE and H2O2 for an additional 4 hours. The amounts of glucose taken up by the 3T3-L1 adipocytes were measured by the MRM methods described above. FIG. 13 includes the results: cells treated with (S)-2-amino-5-((5-aminopentyl)amino)pentanoic acid trihydrochloride (MC-180352).

Data set [3] can be described thus: Liver microsome stability, rat. Particulars: male, Sprague Dawley; rat liver microsomes, 1 μM compound, 0.5 mg/ml microsomal protein, 37° C., 2 mM NADPH. It counts as in vitro ADME, Rat (pooled Sprague Dawley; male). The protocol:
as §1

Data set [4] can be described thus: Solution stability in mouse plasma. The data set is classed as in vitro ADME, mouse (male C57BL/6). Particulars: male, C57BL/6; 1 μM in mouse plasma, 37° C. The method, then: (§2) The stability of the title compound was tested in the following media, in the following concentrations: (i) 1 μM in mouse (male C57BL/6) plasma, (ii) 1 μM in PBS (with Ca and Mg) (control treatment); (iii) 5 μM in stimulated gastric fluid (SGF; 0.2% NaCl; 84 mM HCl; 0.32% pepsin; pH 1.2); (iv) 5 μM in stimulated intestinal fluid (SIF; 50 mM KP, pH 6.8; 10 mg/ml pancreatin); and (v) 5 μM in PBS (+Ca and Mg) (control treatment). The results are as follows: (i) 1 μM in mouse plasma, t1/2>6 hr at 37° C.; (ii) 1 μM in PBS, t1/2>6 hr at 37° C.; (iii) 5 μM in SGF, t1/2>3 hrs at 37° C.; (iv) 5 μM in SIF, t1/2>3 hrs at 37° C.; and (v) 5 μM in PBS, t1/2>3 hr at 37° C. The “t1/2” values are the maximum time employed for the respective assays.

The nature of data set [5]: Solution stability in PBS, simulated gastric fluid and simulated intestinal fluid. It counts as physicochemical. The conditions noted are these: 37° C. The protocol:
as §2

Data set [6] in a line: Solubility in water, DMSO and PBS solubility assay. It counts as physicochemical. The protocol: The title compound was determined to be soluble in water or DMSO at a concentration of at least 10 mM.
Data set [7] deals with mice fed high fat diet (HFD). The data set can be described thus: Blood glucose after glucose administration in overnourished mice (Example 10). The data set is classed as in vivo, C57BL/6J mice. Particulars: 10 μg/mL in drinking water, FIG. 7. From the text:
Twenty-four C57BL/6J mice 8-weeks old were fed with either regular CHOW diet or high fat diet (HFD, 60% of fat content). Eight animals received CHOW diet for one week, 8 animals had been fed already with HFD for two weeks and were continuously fed with the same diet for one more week (for a total of 3 weeks feeding) and 8 animals started HFD at the time of the animal selection (2 weeks feeding). Each group was divided in half, 4 animals received regular water and the other 4 received the (S)-2-amino-6-((3-aminopropyl)amino)hexanoic acid dihydrochloride (10 μg/mL) dissolved in the water. Animals were fasted for 5 hours, weighed, and blood glucose measured by tail clipping. In addition, glucose (1 mg/g of body weight) was administered intraperitoneally. Additional glucose levels were measured at 20, 40 and 80 minutes after glucose administration. Heavy glucose was also administered intraperitoneally to further measure glucose uptake from tissues. Glucose level was taken again at 140 minutes. Animals were euthanized under anesthesia (isoflurane), and blood, liver, fat and muscle were collected.

As for `NCCCNCCCC[C@H](N)C(=O)O` [APL, (S)-2-amino-6-((3-aminopropyl)amino)hexanoic acid dihydrochloride], the maximum predicted concentration in data set [1] is 0.82 µg/mL. Besides, the minimum predicted concentration in data set [1] was 0.1 µg/mL. In addition, the half-life at 1 μM in data set [2] is over 1 h; in data set [3], over 1 h; in data set [4], over 6 h; in data set [5] (1 μM in PBS (with Ca and Mg)) it was over 6 h. The microsomal CLint at 1 μM in data set [2] and in data set [3] was under 23 µL/min/mg each time. Further, in the data set with 3T3-L1 adipocytes, the GLUT4 carbonylations entry is reported as “reduce GLUT4 carbonylations”. The “glucose uptake impairment induced by 4-HNE and H2O2” value with 3T3-L1 adipocytes (FIG. 13) is “prevent glucose uptake impairment induced by 4-HNE and H2O2”. In addition, the half-life at 5 μM is over 3 h in data set [5] (5 μM in PBS (+Ca and Mg)); over 3 h in data set [5] (simulated gastric fluid (SGF) with pepsin, 5 μM in SGF (pH 1.2, pepsin)); over 3 h in data set [5] (simulated intestinal fluid (SIF) with pancreatin, 5 μM in SIF (pH 6.8, pancreatin)). Further, the solubility was at least 10 mM in data set [6] (DMSO, organic solvent or mixture, read-out: solubility in DMSO); over 0.2 mM in data set [6] (phosphate buffered saline (PBS) without Ca or Mg, aqueous buffer, PBS pH 7.4 without Ca or Mg, 200 μM = maximum concentration tested, read-out: solubility in PBS); at least 10 mM in data set [6] (water, read-out: solubility in water). The “glucose uptake impairment induced by overnutrition (blood glucose levels)” value in data set [7] is on record as “effective in counteracting glucose uptake impairment induced by overnutrition”.

A word on the half-life: it is the time in which the quantity being followed falls by half. Read a high half-life as slow loss. In general, microsomal CLint refers to a measure of how fast metabolising enzymes remove a compound, apart from limits set by blood flow. A lower microsomal CLint goes with slow turnover. By solubility is commonly meant the dissolved amount per volume that the medium holds.

These data come from patent US11596615B2, “Compositions and methods for treatment of insulin resistance” (Temple University—Of The Commonwealth System Of Higher …, priority 2016, dated 2023).
